Data set [1] addresses T1, Recombinant human glyoxalase I (GLO1) (Homo sapiens, UniProt Q04760).
T1 sequence (Q04760 2-184 limits assumed): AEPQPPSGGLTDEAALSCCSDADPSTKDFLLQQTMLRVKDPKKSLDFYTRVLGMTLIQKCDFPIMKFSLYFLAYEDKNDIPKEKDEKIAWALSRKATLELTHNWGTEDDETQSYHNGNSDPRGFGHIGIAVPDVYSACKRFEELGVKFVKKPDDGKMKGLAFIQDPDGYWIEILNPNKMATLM
Put plainly: GLO1 inhibition assay. The format is biochemical.

Data set [2] deals with Human recombinant MMP-2 catalytic domain (Homo sapiens, UniProt P08253). Put plainly: MMP-2 fluorogenic substrate inhibition assay. The settings on record: for Percent inhibition MMP-2: SD of triplicate in parentheses.
Data set [3] in a line: logP by potentiometric octanol/water titration. In kind it is physicochemical.
The target in data set [4] is Human carbonic anhydrase II (hCAII) (Homo sapiens, UniProt P00918). Description: hCAII inhibition assay. In kind it is biochemical.
The target in another data set is T2, GLO1 (Homo sapiens, UniProt Q04760).
T2 sequence (Q04760 2-184 limits assumed): T1 sequence (Q04760 2-184 limits assumed)
Put plainly: Thermal shift assay. As to conditions: thermal shift assay (Table S7). In kind it is binding.

Data set [5] can be described thus: pKa determination with SiriusT3. In kind it is physicochemical. As to conditions: SiriusT3, range pH 2.0 – 12.0, 0.15 M KCl.
The mark [6] stands for this setting: 200 μM, SD of triplicate in parentheses.

SMILES strings stand for the structures. Like-named read-outs stand apart in the source and are kept apart here.

As usually defined, the logP is the decadic logarithm of the partition coefficient of the neutral form, usually between octanol and water. One may read the logD as the decadic logarithm of the distribution of all forms, ionised or not, between an organic phase and buffer at a given pH. Read a high logD as higher lipophilicity. Broadly, the inhibition is the share of the control response that was lost under treatment. One may read the IC50 as the concentration that gives 50% inhibition.

Human recombinant MMP-2 catalytic domain, sequence (P08253 110-452 limits assumed): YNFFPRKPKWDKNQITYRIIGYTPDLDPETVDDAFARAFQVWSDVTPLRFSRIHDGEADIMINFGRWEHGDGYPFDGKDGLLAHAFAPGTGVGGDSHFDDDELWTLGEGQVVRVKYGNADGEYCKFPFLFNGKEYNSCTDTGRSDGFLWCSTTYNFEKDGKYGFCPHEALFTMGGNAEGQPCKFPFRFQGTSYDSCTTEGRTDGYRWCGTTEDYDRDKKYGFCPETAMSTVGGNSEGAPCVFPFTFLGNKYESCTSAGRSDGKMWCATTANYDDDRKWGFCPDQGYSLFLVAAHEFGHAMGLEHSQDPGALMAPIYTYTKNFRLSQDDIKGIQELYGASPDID

Take `Oc1ccc2ncccc2c1` [Compound 32]: the “Reduction of GLO1 inhibition activity compared to 8-HQ” value in data set [1] (200 μM) is recorded as more than 50%. In data set [1] (setting [6]), the “Percent inhibition GLO1” value is reported as less than 5%. In data set [2] (200 μM), the “Reduction of MMP-2 inhibition activity compared to 8-HQ” value is more than 50% and the “Percent inhibition MMP-2” value is listed as 26 (7) %.

For `Oc1cccc2cccnc12` [8-HQ, 8-Hydroxyquinoline, reference compound], the logP in data set [3] (octanol/water) was found to be 1.86. Further, the logD in data set [3] (octanol/water, pH 7.4) was 1.85. Besides, the inhibition at 200 µM in data set [1] (read-out: Percent inhibition GLO1) was 95%; in data set [4] (read-out: Percent inhibition hCAII) it was less than 5%; in data set [2] (read-out: Percent inhibition MMP-2) it was 57%. Further, in data set [2], the half-inhibitory concentration (IC50) was 166 µM. Moreover, the “ΔTM of MBI-bound GLO1 vs native, unbound GLO1” value at GLO1 was more than 3 °C.

For `CS(=O)(=O)Nc1cccc2cccnc12` [MBI 18], the “Measured logD7.4” value in data set [3] (derived from measured pKa and logP, pH 7.4) turned out to be 0.99. In addition, in data set [3] (octanol/water, potentiometric, SiriusT3), the “Measured logP” value is listed as 1.01. Moreover, in data set [5], the “Measured pKa1 (conjugated acid, protonated nitrogen of heteroaromatic ring)” value was 3.17 and the “Measured pKa2 (hydroxyl group or its isosteric replacement)” value came to 8.97. Also, the “Percent inhibition hCAII” value in data set [4] (setting [6]) is on record as less than 5%. Further, the “Percent inhibition MMP-2” value in data set [2] (200 μM) is on record as 59 (2) %. The IC50 in data set [2] (read-out: IC50 MMP-2, dose-response 10 μM to 1000 or 1500 μM (Figure S2)) was determined as 154 ± 9.8 µM.

For the compound `COc1ccc(S(=O)(=O)N(CC(=O)NO)CC(C)C)cc1` [NNGH, reference compound], the “Inhibition of MMP-2 by positive control” value in data set [2] (50 μM final concentration) is recorded as “complete inhibition”.

Regarding `COCCCn1ccc2cc(-c3cc(-c4ccccc4)cc(=O)n3O)cnc21` [Chugai-3d, reference compound], the “Inhibition of GLO1 by positive control” value in data set [1] (50 μM final concentration) is on record as “complete inhibition”.
